# Measured values: patent publication US20220281863A1, “COMPOUNDS, COMPOSITIONS AND METHODS OF TREATING DISORDERS” (Reverie Labs, Inc., priority 2019, published 2022)
# Biological target: T1, CDK9/CycTI (Homo sapiens, UniProt P50750)
# T1 construct: purchased Carna biosciences 04-110
# Test: In vitro kinase assay (ADP-Glo Kinase Assay Kit), CDK9/CycTI
# Format: biochemical
# Settings: 30 ng CDK9/CycTI, 30 μM CDKtide, 10 μM ATP, 2 hours at room temperature; 8 to 10-point dose response (Tier2); read-out: IC50 Score
# Protocol: In vitro kinase assay was performed in white, 384-low volume plates in 5 μl reaction volume consisting of 30 ng CDK9/CycTI (Carna biosciences #04-110), 30 μM CDKtide (Signalchem #C06-58) and 10 μM ATP made in reaction buffer (40 mM Tris, pH 7.5; 20 mM MgCl2; 0.1 mg/ml BSA; 50 μM DTT) at 1 μM & 10 μM compound concentration for Tier1 assay and 8 to 10-point dose response curve for Tier2 assay. After 2 hours of incubation at room temperature, the amounts of […] in the kinase reaction were quantified using ADP-Glo™ Kinase Assay Kit (Promega #V9102). Briefly, 5 μl of ADP-Glo™ reagent was added to stop the kinase reaction and plate was incubated for 40 minutes at room temperature. Subsequently, 10 μl of Kinase Detection Reagent was added and luminescence was recorded after 30 minutes of incubation at room temperature.
# The inhibition of kinase activity was determined relative to positive control (2% DMSO) and IC50 was calculated using GraphPad prism software (four parameter-variable slope equation).
# T1 sequence (P50750 whole entry): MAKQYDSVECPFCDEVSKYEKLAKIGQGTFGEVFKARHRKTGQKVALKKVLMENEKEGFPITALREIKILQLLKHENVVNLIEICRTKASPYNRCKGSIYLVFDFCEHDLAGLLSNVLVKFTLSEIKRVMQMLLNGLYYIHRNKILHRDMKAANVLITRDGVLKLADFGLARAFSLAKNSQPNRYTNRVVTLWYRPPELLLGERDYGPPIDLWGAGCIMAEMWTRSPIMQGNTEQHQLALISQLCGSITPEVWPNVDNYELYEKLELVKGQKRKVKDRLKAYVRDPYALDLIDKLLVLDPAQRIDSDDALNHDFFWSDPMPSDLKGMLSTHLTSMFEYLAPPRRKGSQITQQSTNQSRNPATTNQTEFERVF
# T1 sequence (O60563 whole entry partner): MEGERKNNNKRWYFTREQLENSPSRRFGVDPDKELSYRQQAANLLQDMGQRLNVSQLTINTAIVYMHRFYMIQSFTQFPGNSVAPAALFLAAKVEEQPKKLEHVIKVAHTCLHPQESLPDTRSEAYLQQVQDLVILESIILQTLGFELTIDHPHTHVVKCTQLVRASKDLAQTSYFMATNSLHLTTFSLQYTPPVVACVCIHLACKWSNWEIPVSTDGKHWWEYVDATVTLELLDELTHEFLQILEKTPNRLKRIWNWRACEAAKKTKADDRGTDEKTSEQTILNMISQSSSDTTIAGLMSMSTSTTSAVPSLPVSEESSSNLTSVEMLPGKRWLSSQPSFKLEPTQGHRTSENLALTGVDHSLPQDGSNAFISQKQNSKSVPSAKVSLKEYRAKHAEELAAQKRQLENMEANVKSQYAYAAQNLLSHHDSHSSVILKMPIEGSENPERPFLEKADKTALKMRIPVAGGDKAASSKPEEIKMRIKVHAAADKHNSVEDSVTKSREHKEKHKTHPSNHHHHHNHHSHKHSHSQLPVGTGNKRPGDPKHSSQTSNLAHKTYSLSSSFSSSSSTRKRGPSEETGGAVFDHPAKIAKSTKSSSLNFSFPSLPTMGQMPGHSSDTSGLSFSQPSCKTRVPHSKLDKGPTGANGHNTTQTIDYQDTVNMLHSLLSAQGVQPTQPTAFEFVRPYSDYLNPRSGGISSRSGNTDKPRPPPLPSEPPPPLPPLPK
row,Structure (SMILES),IC50 [µM]
1,"O=C(Nc1nc2ccc3cc(F)ccc3c2s1)C1CCNC1 (single isomer, unassigned) [Compound 51, N-(7-fluoronaphtho[2,1-d]thiazol-2-yl)pyrrolidine-3-carboxamide]",0.001 to 0.1
2,"CN[C@@H]1CC[C@H](C(=O)Nc2nc3ccc4cc(F)ccc4c3s2)C1 [Compound 87, (1S,3R)—N-(7-fluoronaphtho[2,1-d]thiazol-2-yl)-3-(methylamino)cyclopentane-1-carboxamide]",0.001 to 0.1
3,"CN1CCC(C(=O)Nc2nc3ccc4cc(F)ccc4c3s2)C1 (single isomer, unassigned) [Compound 70, N-(7-fluoronaphtho[2,1-d]thiazol-2-yl)-1-methylpyrrolidine-3-carboxamide]",0.001 to 0.1
4,"O=C(Nc1nc2ccc3cc(F)ccc3c2s1)[C@H]1CC[C@@H](N2CCOCC2)C1 [Compound 57, (1S,3R)—N-(7-fluoronaphtho[2,1-d]thiazol-2-yl)-3-morpholinocyclopentane-1-carboxamide]",0.001 to 0.1
5,"CS(=O)(=O)N[C@@H]1CCC[C@H](C(=O)Nc2nc3c(s2)-c2ccc(F)cc2CC3)C1 [Compound 13-b, (1S,3R)—N-(7-fluoro-4,5-dihydronaphtho[2,1-d]thiazol-2-yl)-3-(methylsulfonamido)cyclohexane-1-carboxamide]",0.1 to 0.5
6,"O=C(Nc1nc2c(s1)-c1ccc(F)cc1CC2)[C@H]1CCC[C@@H](NS(=O)(=O)C2CC2)C1 [Compound 15-b, (1S,3R)-3-(cyclopropanesulfonamido)-N-(7-fluoro-4,5-dihydronaphtho[2,1-d]thiazol-2-yl)cyclohexane-1-carboxamide]",0.5 to 1
7,"O=C(Nc1nc2ccc3cc(F)ccc3c2s1)c1ccno1 [Compound 49, N-(7-fluoronaphtho[2,1-d]thiazol-2-yl)isoxazole-5-carboxamide]",1 to 20
8,CN1CC(C(=O)Nc2nc3ccc4cc(F)ccc4c3s2)C1 [Compound 29],1 to 20
9,"O=C1CC[C@@H](C(=O)Nc2nc3ccc4ccccc4c3s2)N1 [Compound 11, (S)—N-(naphtho[2,1-d]thiazol-2-yl)-5-oxopyrrolidine-2-carboxamide]",0.001 to 0.1
10,O=C(Nc1nc2ccc3cc(F)ccc3c2s1)[C@@H]1CCNC1 [Compound 77],1 to 20
11,CC(=O)N[C@@H]1CCC[C@@H](C(=O)Nc2nc3ccc4cc(F)ccc4c3s2)C1 [Compound 81],0.5 to 1
12,"CC(=O)N1CCN(C)CC1C(=O)Nc1nc2ccc3cc(F)ccc3c2s1 (single isomer, unassigned) [Compound 32, 1-acetyl-N-(7-fluoronaphtho[2,1-d]thiazol-2-yl)-4-methylpiperazine-2-carboxamide]",1 to 20
13,"O=C(Nc1nc2ccc3cc(F)ccc3c2s1)c1c[nH]cn1 [Compound 53, N-(7-fluoronaphtho[2,1-d]thiazol-2-yl)-1H-imidazole-4-carboxamide]",1 to 20
14,"C=CC(=O)N1CCC[C@@H]1C(=O)Nc1nc2ccc3cc(F)ccc3c2s1 [Compound 44, (R)-1-acryloyl-N-(7-fluoronaphtho[2,1-d]thiazol-2-yl)pyrrolidine-2-carboxamide]",0.001 to 0.1
15,"O=C(Nc1nc2ccc3cc(F)ccc3c2s1)c1cn[nH]c1 [Compound 50, N-(7-fluoronaphtho[2,1-d]thiazol-2-yl)-1H-pyrazole-4-carboxamide]",1 to 20
16,"O=C(Nc1nc2ccc3cc(F)ccc3c2s1)[C@@H]1CCOC1 [Compound 60, (R)—N-(7-fluoronaphtho[2,1-d]thiazol-2-yl)tetrahydrofuran-3-carboxamide]",0.001 to 0.1
17,"CN1CCC(C(=O)Nc2nc3ccc4cc(F)ccc4c3s2)C1 (stereo not drawn) [Compound 65, N-(7-fluoronaphtho[2,1-d]thiazol-2-yl)-1-methylpyrrolidine-3-carboxamide]",0.1 to 0.5
18,CC(C)(C)OC(=O)N1CCCC[C@@H]1C(=O)Nc1nc2ccc3cc(F)ccc3c2s1 [Compound 23],0.001 to 0.1
19,"CC(=O)N1CCC[C@@H]1C(=O)Nc1nc2ccc3cc(F)ccc3c2s1 [Compound 4, (R)-1-acetyl-N-(7-fluoronaphtho[2,1-d]thiazol-2-yl)pyrrolidine-2-carboxamide]",0.001 to 0.1
20,CC(C)(C)OC(=O)N1CC[C@@H](C(=O)Nc2nc3ccc4cc(F)ccc4c3s2)C1 [Compound 89],1 to 20
21,CC(C)(C)OC(=O)N1CCC(C(=O)Nc2nc3ccc4cc(F)ccc4c3s2)CC1 [Compound 40],1 to 20
22,O=C(Nc1nc2ccc3cc(F)ccc3c2s1)[C@H]1CCOC1 [Compound 42],0.1 to 0.5
23,CN(C)[C@@H]1CC[C@H](C(=O)Nc2nc3ccc4cc(F)ccc4c3s2)C1 [Compound 39],0.001 to 0.1

row,Structure (SMILES),IC50 [µM]
1,"CC(=O)N1CC[C@H](C(=O)Nc2nc3ccc4cc(F)ccc4c3s2)C1 [Compound 52, (S)-1-acetyl-N-(7-fluoronaphtho[2,1-d]thiazol-2-yl)pyrrolidine-3-carboxamide]",0.001 to 0.1
2,"CC(=O)N1CCC(C(=O)Nc2nc3ccc4cc(F)ccc4c3s2)C1 (single isomer, unassigned) [Compound 36, 1-acetyl-N-(7-fluoronaphtho[2,1-d]thiazol-2-yl)pyrrolidine-3-carboxamide]",0.001 to 0.1
3,CN(C(=O)OC(C)(C)C)[C@@H]1CCC[C@H](C(=O)Nc2nc3ccc4cc(F)ccc4c3s2)C1 [Compound 24],1 to 20
4,"CN1CCC(C(=O)Nc2nc3ccc4cc(F)ccc4c3s2)C1 (single isomer, unassigned) [Compound 48, N-(7-fluoronaphtho[2,1-d]thiazol-2-yl)-1-methylpyrrolidine-3-carboxamide]",0.001 to 0.1
5,"CC(=O)N1CCC(C(=O)Nc2nc3ccc4cc(F)ccc4c3s2)C1 (racemic) [Compound 55, 1-acetyl-N-(7-fluoronaphtho[2,1-d]thiazol-2-yl)pyrrolidine-3-carboxamide]",0.001 to 0.1
6,"CC(=O)N1CC[C@H]1C(=O)Nc1nc2ccc3cc(F)ccc3c2s1 [Compound 73, (S)-1-acetyl-N-(7-fluoronaphtho[2,1-d]thiazol-2-yl)azetidine-2-carboxamide]",1 to 20
7,O=C(Nc1nc2ccc3cc(F)ccc3c2s1)c1nncs1 [Compound 80],1 to 20
8,"CC(=O)N1CCC[C@H](C(=O)Nc2nc3ccc4cc(F)ccc4c3s2)C1 [Compound 45, (S)-1-acetyl-N-(7-fluoronaphtho[2,1-d]thiazol-2-yl)piperidine-3-carboxamide]",0.001 to 0.1
9,"CN1CCC(C(=O)Nc2nc3ccc4cc(F)ccc4c3s2)C1 (single isomer, unassigned) [Compound 92, N-(7-fluoronaphtho[2,1-d]thiazol-2-yl)-1-methylpyrrolidine-3-carboxamide]",0.001 to 0.1
10,"CC(C)(C)OC(=O)N1CC[C@H](C(=O)Nc2nc3ccc4cc(F)ccc4c3s2)C1 [Compound 59, Tert-butyl (S)-3-((7-fluoronaphtho[2,1-d]thiazol-2-yl)carbamoyl)pyrrolidine-1-carboxylate]",0.5 to 1
11,"CC(=O)N(C)[C@@H]1CC[C@H](C(=O)Nc2nc3ccc4cc(F)ccc4c3s2)C1 [Compound 71, (1S,3R)—N-(7-fluoronaphtho[2,1-d]thiazol-2-yl)-3-(N-methylacetamido)cyclopentane-1-carboxamide]",0.001 to 0.1
12,"C=CC(=O)N[C@H]1CCC[C@@H](C(=O)Nc2nc3ccc4cc(F)ccc4c3s2)C1 [Compound 33, (1R,3S)-3-acrylamido-N-(7-fluoronaphtho[2,1-d]thiazol-2-yl)cyclohexane-1-carboxamide]",0.1 to 0.5
13,"CC(C)(C)OC(=O)N1CC[C@@H]1C(=O)Nc1nc2ccc3cc(F)ccc3c2s1 [Compound 35, Tert-butyl (R)-2-((7-fluoronaphtho[2,1-d]thiazol-2-yl)carbamoyl)azetidine-1-carboxylate]",1 to 20
14,"N[C@H]1CCC[C@@H](C(=O)Nc2nc3ccc4cc(F)ccc4c3s2)C1 [Compound 63, (1R,3S)-3-amino-N-(7-fluoronaphtho[2,1-d]thiazol-2-yl)cyclohexane-1-carboxamide]",0.1 to 0.5
15,"CC(=O)N1CC(C(=O)Nc2nc3ccc4cc(F)ccc4c3s2)C1 [Compound 28, 1-acetyl-N-(7-fluoronaphtho[2,1-d]thiazol-2-yl)azetidine-3-carboxamide]",0.1 to 0.5
16,"O=C(Nc1nc2ccc3cc(F)ccc3c2s1)C1CNC1 [Compound 58, N-(7-fluoronaphtho[2,1-d]thiazol-2-yl)azetidine-3-carboxamide]",0.1 to 0.5
17,"CC(=O)N1CCN(C)CC1C(=O)Nc1nc2ccc3cc(F)ccc3c2s1 (single isomer, unassigned) [Compound 66, 1-acetyl-N-(7-fluoronaphtho[2,1-d]thiazol-2-yl)-4-methylpiperazine-2-carboxamide]",1 to 20
18,"CC(=O)N1CCCC[C@H]1C(=O)Nc1nc2ccc3cc(F)ccc3c2s1 (single isomer, unassigned) [Compound 67]",1 to 20
19,"CC(=O)N1CCC[C@@H]1C(=O)Nc1nc2c(s1)-c1ccc(F)cc1CC2 [Compound 6, (R)-1-acetyl-N-(7-fluoro-4,5-dihydronaphtho[2,1-d]thiazol-2-yl)pyrrolidine-2-carboxamide]",0.5 to 1
20,"CC(=O)N1CCC[C@@H]1C(=O)Nc1nc2ccc3ccccc3c2s1 [Compound 3, (R)-1-acetyl-N-(naphtho[2,1-d]thiazol-2-yl)pyrrolidine-2-carboxamide]",0.1 to 0.5
21,"O=C(Nc1nc2ccc3cc(F)ccc3c2s1)[C@H]1CCCO1 [Compound 10, (R)—N-(7-fluoronaphtho[2,1-d]thiazol-2-yl)tetrahydrofuran-2-carboxamide]",0.1 to 0.5
22,CC(C)(C)C(=O)N1CCC(C(=O)Nc2nc3ccc4cc(F)ccc4c3s2)CC1 [Compound 64],0.5 to 1
